The test system of one data set is MDA-MB-231. Nature of the data set: cells. In kind it is cell-based. The conditions noted are these: Homo sapiens, 120 h; MDA-MB-231 cells, five days co-incubation; read-out: IC50 (nM) MDA-MB-231. How it is done:
(§1) MDA-MB-231, OV90, and NCI-N87 cells at defined cell densities (1,500 cells per well, 80 µL volume) were seeded into 96-well plates. The cells were cultured overnight in a constant-temperature incubator (37°C, 5% CO2). Ecteinascidin derivative solutions at a maximum concentration of 2 mM were first prepared in DMSO, and serial 1:4 gradient dilutions were performed. 1 µL of each DMSO-prepared dilution was added to 99 µL of PBS containing 10% FBS per well and mixed thoroughly. The diluted solutions (2 µL of diluted solution and 18 µL of PBS containing 10% FBS per well) were then co-incubated with the cells (37°C, 5% CO2) for five days, after which CellTiter-Glo reagent (40 µL per well) was added, and […] values were measured using an i3x microplate reader.

Another data set has as its system NCI-N87. Nature of the data set: cells. In kind it is cell-based. Conditions: Homo sapiens, 120 h; NCI-N87 cells, five days co-incubation; read-out: IC50 (nM) NCI-N87. How it is done:
as §1

In the next data set the test system is OV90. As to the kind of experiment: cells. Conditions: Homo sapiens, OV-90, 120 h; OV90 cells, five days co-incubation; read-out: IC50 (nM) OV90. The class given is cell-based. As to the method: as §1
For data set [1], the system named is specific soft tissue sarcomas. The conditions noted are these: cited from earlier work.
The conditions of data set [2]: 378 patients who received at least one dose; cited from earlier work.

Broadly, the IC50 is the concentration needed to halve the response being measured. For `COc1cc2c(cc1O)CCN[C@]21CS[C@@H]2c3c(OC(C)=O)c(C)c4c(c3[C@H](COC1=O)N1[C@@H]2[C@H]2c3c(cc(C)c(OC)c3O)C[C@@H]([C@@H]1O)N2C)OCO4` [Trabectedin], the IC50 in the data set on MDA-MB-231 was 1 to 10 nM. Besides, in the data set on NCI-N87, the IC50 was less than 1 nM. For the same molecule, the concentration for half-maximal inhibition (IC50) in the data set with OV90 was in the range of 10 to 200 nM. For the same molecule, the HR in data set [1] (disease progression or death, 95% CI: 0.44-0.70, p<0.001) was 0.55. Besides, in data set [1] (more than 500 patients), the “median OS” value is reported as 13.7 months and the “risk of disease progression or death was reduced” value is recorded as 45%. Also, the “median PFS” value in data set [1] (more than 500 patients, n=345, 95% CI: 3.0-4.8 months) is given as 4.2 months. In data set [2], the “adverse reactions: constipation” value was 37%, the “adverse reactions: decreased appetite” value is recorded as 37%, the “adverse reactions: diarrhea” value is listed as 35% and the “adverse reactions: dyspnea” value is 25%. In data set [2], the “adverse reactions: fatigue” value is 69%, the “adverse reactions: headache” value is reported as 25%, the “adverse reactions: nausea” value is 75% and the “adverse reactions: peripheral edema” value was 28%. In data set [2], the “adverse reactions: vomiting” value was 46%, the “grade 3-4 laboratory abnormalities: alanine transaminase (ALT) increase” value is 31%, the “grade 3-4 laboratory abnormalities: anemia” value is recorded as 19% and the “grade 3-4 laboratory abnormalities: aspartate transaminase (AST) increase” value was 17%. Moreover, in data set [2], the “grade 3-4 laboratory abnormalities: creatine kinase increase” value is 6.4%, the “grade 3-4 laboratory abnormalities: neutropenia” value is on record as 43% and the “grade 3-4 laboratory abnormalities: thrombocytopenia” value was 21%.

The record behind these values is patent EP4778932A1 (priority 2023, dated 2025).
